Measurements as given in patent publication US20250346600A1, “TRICYCLIC DERIVATIVES AND RELATED USES” (MOMA Therapeutics, Inc., priority 2023, published 2025).

Tests used:
[1] = molecular target: T1, Full length WRN protein (aa 2-1432) (Homo sapiens (Human), UniProt Q14191); assay: WRN ATPase ADP-Glo biochemical assay, Assay Format A (10 μM ATP); details: 0.25 nM WRN, 100 nM C6.18 ssDNA, 30 min preincubation, read-out: ATPase ADPGlo AC50 (uM)- Assay Format A
Summary of the method: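 ADP-Glo luminescence measured hydrolysis of ATP by purified, baculovirus-expressed N-terminally tagged full-length WRN. Enzyme (0.5 nM) was preincubated 30 min with compound, then 200 nM ssDNA C6.18 plus 20 μM ATP were added (pre-mix levels) for 30 min at RT. IC50s come from four-parameter fits, geometric mean of at least two trials.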

[2] = molecular target: T1, Full length WRN protein (aa 2-1432); assay: WRN ATPase ADP-Glo biochemical assay, Assay Format B (100 μM ATP); details: 0.25 nM WRN, 100 nM C6.18 ssDNA, 60 min preincubation, read-out: ATPase ADPGlo AC50 (uM)- Assay Format B
HT29 cells = assay: HT29 (MSS) 7 day viability, CellTiter Glo; format: cell-based; details: Homo sapiens, HT-29, 168 h, 7 days, read-out: HT29 (MSS) Viability 7 Day CTGAbs AC50
Summary of the method: (§1)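 For each line, compound dilution series (3-fold, 10 points) met a defined seeding density—HCT116 50, HT29 500 cells/well—followed by 7 days at 37 °C. Luminescent ATP signal, background-corrected with no-cell wells, gave four-parameter logistic IC50s.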

HCT116 cells = assay: HCT116 (MSI) 7 day viability, CellTiter Glo; format: cell-based; details: Homo sapiens, HCT-116, 168 h, 7 days, read-out: HCT116 (MSI) Viability 7 Day Abs AC50
Summary of the method: as §1

T1 sequence (Q14191 2-1432): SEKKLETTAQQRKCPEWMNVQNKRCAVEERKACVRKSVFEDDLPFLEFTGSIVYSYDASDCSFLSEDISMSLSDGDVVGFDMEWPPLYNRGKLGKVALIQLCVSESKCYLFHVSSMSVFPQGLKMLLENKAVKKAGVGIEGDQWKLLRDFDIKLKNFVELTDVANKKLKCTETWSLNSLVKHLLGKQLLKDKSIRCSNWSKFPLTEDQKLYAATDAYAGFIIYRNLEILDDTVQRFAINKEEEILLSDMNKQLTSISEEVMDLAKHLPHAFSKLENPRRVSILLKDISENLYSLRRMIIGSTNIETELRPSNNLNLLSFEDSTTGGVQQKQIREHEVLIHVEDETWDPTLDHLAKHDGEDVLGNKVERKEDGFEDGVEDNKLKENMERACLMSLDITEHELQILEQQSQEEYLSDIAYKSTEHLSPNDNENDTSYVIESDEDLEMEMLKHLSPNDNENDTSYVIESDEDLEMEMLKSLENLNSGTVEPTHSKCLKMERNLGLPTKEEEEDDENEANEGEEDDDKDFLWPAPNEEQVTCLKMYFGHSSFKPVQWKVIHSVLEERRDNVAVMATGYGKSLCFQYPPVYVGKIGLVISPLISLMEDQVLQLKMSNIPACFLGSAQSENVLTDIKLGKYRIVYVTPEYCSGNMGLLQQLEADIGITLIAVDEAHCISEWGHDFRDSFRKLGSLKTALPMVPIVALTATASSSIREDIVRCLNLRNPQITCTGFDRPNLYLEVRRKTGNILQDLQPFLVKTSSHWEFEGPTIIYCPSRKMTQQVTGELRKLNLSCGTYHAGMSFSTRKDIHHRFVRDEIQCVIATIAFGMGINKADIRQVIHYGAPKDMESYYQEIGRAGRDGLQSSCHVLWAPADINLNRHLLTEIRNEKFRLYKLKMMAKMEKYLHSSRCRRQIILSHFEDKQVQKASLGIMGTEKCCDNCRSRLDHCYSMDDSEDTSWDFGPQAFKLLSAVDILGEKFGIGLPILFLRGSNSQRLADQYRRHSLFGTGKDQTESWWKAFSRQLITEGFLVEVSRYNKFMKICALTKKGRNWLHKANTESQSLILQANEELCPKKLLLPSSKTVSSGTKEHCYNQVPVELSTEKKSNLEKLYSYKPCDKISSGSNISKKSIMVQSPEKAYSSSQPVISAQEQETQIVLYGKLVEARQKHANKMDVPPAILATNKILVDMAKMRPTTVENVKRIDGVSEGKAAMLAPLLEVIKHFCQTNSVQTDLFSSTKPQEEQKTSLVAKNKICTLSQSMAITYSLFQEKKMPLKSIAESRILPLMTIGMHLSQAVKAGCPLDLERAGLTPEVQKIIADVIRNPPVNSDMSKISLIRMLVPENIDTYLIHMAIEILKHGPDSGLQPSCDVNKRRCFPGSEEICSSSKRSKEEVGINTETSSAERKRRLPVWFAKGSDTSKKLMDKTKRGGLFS

SMILES	AC50 [1]	AC50 [2]	AC50 (HT29 cells)	AC50 (HCT116 cells)
C=CC(=O)N1CCc2nn(-c3ccc(C(C)C)cc3)c3c2C(C1)N(C(=O)c1ccc(C(F)(F)F)nc1)CC3 (stereo not shown) [Compound 13, 1-(2-(4-isopropylphenyl)-5-(6-(trifluoromethyl)nicotinoyl)-2,3,4,5,5a,6,8,9-octahydro-7H-1,2,5,7-tetraazabenzo[cd]azulen-7-yl)prop-2-en-1-one]	0.0015 to 0.005 µM	0.015 to 0.055 µM	> 3000 nM	100 to 250 nM
C=CC(=O)N1CCc2nn(-c3ccc(C4CC4)cc3)c3c2C(C1)N(C(=O)c1cnc(C(C)(F)F)cc1N)CC3 (stereo not shown) [Compound 183, 1-(5-(4-amino-6-(1,1-difluoroethyl)nicotinoyl)-2-(4-cyclopropylphenyl)-2,3,4,5,5a,6,8,9-octahydro-7H-1,2,5,7-tetraazabenzo[cd]azulen-7-yl)prop-2-en-1-one]	< 0.0015 µM	0.0015 to 0.005 µM	> 3000 nM	1 to 100 nM
C=CC(=O)N1CCc2nn(-c3ccc(C(C)C)cc3)c3c2C(C1)N(C(=O)c1ccc(Br)c(-c2cc[nH]n2)c1)CC3 (stereo not shown) [Compound 106, 1-(5-(4-bromo-3-(1H-pyrazol-3-yl)benzoyl)-2-(4-isopropylphenyl)-2,3,4,5,5a,6,8,9-octahydro-7H-1,2,5,7-tetraazabenzo[cd]azulen-7-yl)prop-2-en-1-one]	0.0015 to 0.005 µM	> 0.055 µM	> 3000 nM	250 to 500 nM
C=CC(=O)N1CCc2nn(-c3ccc(C(F)(F)F)nc3N)c3c2C(C1)N(C(=O)c1ccc(Br)c2[nH]c(C(F)F)nc12)CC3 (stereo not shown) [Compound 136, 1-(2-(2-amino-6-(trifluoromethyl)pyridin-3-yl)-5-(7-bromo-2-(difluoromethyl)-1H-benzo[d]imidazole-4-carbonyl)-2,3,4,5,5a,6,8,9-octahydro-7H-1,2,5,7-tetraazabenzo[cd]azulen-7-yl)prop-2-en-1-one]	0.0015 to 0.005 µM	0.015 to 0.055 µM	> 3000 nM	100 to 250 nM
C=CC(=O)N1CCc2nn(-c3ccc(C(C)C)cc3)c3c2C(C1)N(C(=O)c1ccc(Br)c2c1CCO2)CC3 (stereo not shown) [Compound 65, 1-(5-(7-bromo-2,3-dihydrobenzofuran-4-carbonyl)-2-(4-isopropylphenyl)-2,3,4,5,5a,6,8,9-octahydro-7H-1,2,5,7-tetraazabenzo[cd]azulen-7-yl)prop-2-en-1-one]	< 0.0015 µM	0.015 to 0.055 µM	> 3000 nM	1 to 100 nM
C=CC(=O)N1CCc2nn(-c3ccc(C(C)C)cc3O)c3c2C(C1)N(C(=O)c1ccc(Br)c2[nH]cnc12)CC3 (stereo not shown) [Compound 20, 1-(5-(7-bromo-1H-benzo[d]imidazole-4-carbonyl)-2-(2-hydroxy-4-isopropylphenyl)-2,3,4,5,5a,6,8,9-octahydro-7H-1,2,5,7-tetraazabenzo[cd]azulen-7-yl)prop-2-en-1-one]	< 0.0015 µM	0.005 to 0.015 µM	> 3000 nM	1 to 100 nM
C=CC(=O)N1CCc2nn(-c3ccc(C4CC4)cc3)c3c2C(C1)N(C(=O)c1ccc(Br)nc1C)CC3 (stereo not shown) [Compound 114, 1-(5-(6-bromo-2-methylnicotinoyl)-2-(4-cyclopropylphenyl)-2,3,4,5,5a,6,8,9-octahydro-7H-1,2,5,7-tetraazabenzo[cd]azulen-7-yl)prop-2-en-1-one]	0.005 to 0.015 µM	> 0.055 µM	> 3000 nM	250 to 500 nM
C=CC(=O)N1CC(OC2CC2)c2nn(-c3ccc(C4CCC4)cc3)c3c2C(C1)N(C(=O)c1cnc(C(F)(F)F)cc1N)CC3 (stereo not shown) [Compound 129, 1-(5-(4-amino-6-(trifluoromethyl)nicotinoyl)-2-(4-cyclobutylphenyl)-9-cyclopropoxy-2,3,4,5,5a,6,8,9-octahydro-7H-1,2,5,7-tetraazabenzo[cd]azulen-7-yl)prop-2-en-1-one]	< 0.0015 µM	0.0015 to 0.005 µM	1000 to 3000 nM	1 to 100 nM
C=CC(=O)N1CCc2nn(-c3ccc(C4CCC4)cc3O)c3c2C(C1)N(C(=O)c1ccc(C(F)F)nc1N)CC3 (stereo not shown) [Compound 146, 1-(5-(2-amino-6-(difluoromethyl)nicotinoyl)-2-(4-cyclobutyl-2-hydroxyphenyl)-2,3,4,5,5a,6,8,9-octahydro-7H-1,2,5,7-tetraazabenzo[cd]azulen-7-yl)prop-2-en-1-one]	< 0.0015 µM	0.005 to 0.015 µM	> 3000 nM	1 to 100 nM
C=CC(=O)N1CCOc2nn(-c3ccc(C4CCC4)cc3O)c3c2C(C1)N(C(=O)c1ccc(Br)c2[nH]cnc12)CC3 (stereo not shown) [Compound 39, 1-(5-(7-bromo-1H-benzo[d]imidazole-4-carbonyl)-2-(4-cyclobutyl-2-hydroxyphenyl)-2,3,4,5,5a,6,8,9-octahydro-7H-10-oxa-1,2,5,7-tetraazacycloocta[cd]inden-7-yl)prop-2-en-1-one]	0.0015 to 0.005 µM	0.015 to 0.055 µM	> 3000 nM	1 to 100 nM
C=CC(=O)N1CCc2nn(-c3ccc(C4CCC4)cc3Cl)c3c2C(C1)N(C(=O)c1cnc(C(F)(F)F)cc1N)CC3 (stereo not shown) [Compound 241, 1-(5-(4-amino-6-(trifluoromethyl)nicotinoyl)-2-(2-chloro-4-cyclobutylphenyl)-2,3,4,5,5a,6,8,9-octahydro-7H-1,2,5,7-tetraazabenzo[cd]azulen-7-yl)prop-2-en-1-one]	< 0.0015 µM	0.005 to 0.015 µM	> 3000 nM	1 to 100 nM
C=CC(=O)N1CCc2nn(-c3ccc(C4CCC4)cc3O)c3c2C(C1)N(C(=O)c1ccc(OC(F)(F)F)nc1)CC3 (stereo not shown) [Compound 93, 1-(2-(4-cyclobutyl-2-hydroxyphenyl)-5-(6-(trifluoromethoxy)nicotinoyl)-2,3,4,5,5a,6,8,9-octahydro-7H-1,2,5,7-tetraazabenzo[cd]azulen-7-yl)prop-2-en-1-one]	< 0.0015 µM	0.005 to 0.015 µM	> 3000 nM	1 to 100 nM
C=CC(=O)N1CC(OCc2nnc(C)s2)c2nn(-c3ccc(C4CC4)cc3)c3c2C(C1)N(C(=O)c1cnc(C(F)(F)F)cc1N)CC3 (stereo not shown) [Compound 249, 1-(5-(4-amino-6-(trifluoromethyl)nicotinoyl)-2-(4-cyclopropylphenyl)-9-((5-methyl-1,3,4-thiadiazol-2-yl)methoxy)-2,3,4,5,5a,6,8,9-octahydro-7H-1,2,5,7-tetraazabenzo[cd]azulen-7-yl)prop-2-en-1-one]	< 0.0015 µM	0.0015 to 0.005 µM	> 3000 nM	1 to 100 nM
C=CC(=O)N1CCc2nn(-c3ccc(C(C)C)cc3)c3c2C(C1)N(C(=O)c1cnc(C(F)(F)F)c(O)c1)CC3 (stereo not shown) [Compound 14, 1-(5-(5-hydroxy-6-(trifluoromethyl)nicotinoyl)-2-(4-isopropylphenyl)-2,3,4,5,5a,6,8,9-octahydro-7H-1,2,5,7-tetraazabenzo[cd]azulen-7-yl)prop-2-en-1-one]	0.0015 to 0.005 µM	0.015 to 0.055 µM	> 3000 nM	1 to 100 nM
C=CC(=O)N1CCc2nn(-c3ccc(C4CC4)cc3)c3c2C(C1)N(C(=O)c1ccc(C(F)(F)F)nc1N)CC3 (stereo not shown) [Compound 67, 1-(5-(2-amino-6-(trifluoromethyl)nicotinoyl)-2-(4-cyclopropylphenyl)-2,3,4,5,5a,6,8,9-octahydro-7H-1,2,5,7-tetraazabenzo[cd]azulen-7-yl)prop-2-en-1-one]	0.0015 to 0.005 µM	0.005 to 0.015 µM	> 3000 nM	1 to 100 nM
C=CC(=O)N1CCc2nn(-c3ccc(C4CC4)cc3O)c3c2C(C1)N(C(=O)c1cnc(C(F)(F)F)cc1N)CC3 (stereo not shown) [Compound 163, 1-(5-(4-amino-6-(trifluoromethyl)nicotinoyl)-2-(4-cyclopropyl-2-hydroxyphenyl)-2,3,4,5,5a,6,8,9-octahydro-7H-1,2,5,7-tetraazabenzo[cd]azulen-7-yl)prop-2-en-1-one]	< 0.0015 µM	0.005 to 0.015 µM	> 3000 nM	1 to 100 nM
C=CC(=O)N1CCc2nn(-c3ccc(C(C)C)c(F)c3N)c3c2C(C1)N(C(=O)c1cnc(C(F)(F)F)c(O)c1)CC3 (stereo not shown) [Compound 57, 1-(2-(2-amino-3-fluoro-4-isopropylphenyl)-5-(5-hydroxy-6-(trifluoromethyl)nicotinoyl)-2,3,4,5,5a,6,8,9-octahydro-7H-1,2,5,7-tetraazabenzo[cd]azulen-7-yl)prop-2-en-1-one]	0.0015 to 0.005 µM	0.015 to 0.055 µM	> 3000 nM	100 to 250 nM
C=CC(=O)N1CCc2nn(-c3cc(F)c(C4CC4)c(F)c3O)c3c2C(C1)N(C(=O)c1cnc(C(F)(F)F)cc1N)CC3 (stereo not shown) [Compound 244, 1-(5-(4-amino-6-(trifluoromethyl)nicotinoyl)-2-(4-cyclopropyl-3,5-difluoro-2-hydroxyphenyl)-2,3,4,5,5a,6,8,9-octahydro-7H-1,2,5,7-tetraazabenzo[cd]azulen-7-yl)prop-2-en-1-one]	0.0015 to 0.005 µM	0.015 to 0.055 µM	> 3000 nM	1 to 100 nM
C=CC(=O)N1CCc2nn(-c3ccc(C(C)C)cc3)c3c2C(C1)N(C(=O)c1ccc(Br)c2[nH]c(N)nc12)CC3 (stereo not shown) [Compound 8, 1-(5-(2-amino-7-bromo-1H-benzo[d]imidazole-4-carbonyl)-2-(4-isopropylphenyl)-2,3,4,5,5a,6,8,9-octahydro-7H-1,2,5,7-tetraazabenzo[cd]azulen-7-yl)prop-2-en-1-one]	< 0.0015 µM	0.005 to 0.015 µM	> 3000 nM	1 to 100 nM
